{"source": "patent US12274730B2", "about": "“Flavonoid compositions and methods of use” (Berkley, LLC, priority 2015, dated 2025)", "origin": "cited, not measured here", "conditions": "general statement, no test described"}
{"compound": "O=c1c(O)c(-c2ccc(O)c(O)c2)oc2cc(O)cc(O)c12", "note": "[Quercetin, 2-(3,4-dihydroxyphenyl)-3,5,7-trihydroxy-4H-chromen-4-one]", "values": [{"measurement": "Half-life", "result": "3.5 to 11", "unit": "h"}]}
